Reference: article PMC11435625, “In Vitro Hepatic Clearance Evaluations of Per- and Polyfluoroalkyl Substances (PFAS) across Multiple Structural Categories” (Toxics, 2024)
Like-named read-outs stand apart in the source and are kept apart here.

Legend:
[1] = test system: pooled primary human hepatocyte suspensions; conditions: both, hepatocytes, 1 μM
Description: (§2) Markov Chain Monte Carlo was employed in a Bayesian analysis to estimate uncertainty of the hepatic clearance point measures as previously described, but with some modifications [10]. Briefly, after organizing PFAS-level data into a single file, the relationship between the relevant measurement process parameters was described in a graphic model in JAGS language [13] interfaced through R. For hepatic clearance data, the model describes the PFAS-specific mass spectrometric response factor between analyte peak ratio (to internal standard) and chemical concentration. […] The assumed prior for whether the chemical degraded abiotically in vitro followed a Bernoulli distribution with a 5% chance of abiotic degradation. Separate biotic and abiotic components for chemical elimination were estimated, each with a slope following an assumed uniform prior distribution bounded between the zero and the -log (limit of quantitation/Ctest). In scenarios where an external calibration without internal standard was used, the response factor was calculated using the analyte peak alone, introducing additional uncertainty due to the inability to normalize for recovery issues. The model was analyzed jointly by JAGS using five Markov chains. Convergence was identified by requiring the five chains to be consistent, as indicated by the potential scale reduction factor [14] being less than 1.1. The analysis was performed using EPA-developed R package invitroTKstats, available upon request.

plasma protein = conditions: cited from earlier work; for fup (fraction unbound in plasma): human plasma
[2] = IVIVE: steady-state concentration (Css), generic HTTK model; parameters: species or system human; conditions: for Css (mg/L) / Css (uM): Assuming 1 mg/kg/day dose rate, BW 70 kg; for CLhep: QL 1500000 uL/min; for Fub: fub=fup/(B:P), Fub set to 1 if needed; for CLint: scaled to whole liver: HPGL 110 mill cells/g, Vl 1596 g; for Css: human steady-state concentration, 1 mg/kg/day exposure rate, loss of parent compound only
How it was run: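 Human Css estimated by IVIVE: plasma protein binding converted to blood fraction unbound via blood-to-plasma partitioning, and experimental Clint scaled with liver scalars to whole liver clearance. AEDs then derived by reverse dosimetry from Css and PFAS in vitro POD, defined as fifth-percentile AC50.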

[3] = test system: pooled primary human hepatocyte suspensions; test: Hepatic clearance assay (substrate depletion, LC-MS); conditions: for In Vitro Clint: Table 3, pooled human hepatocyte suspension, 0 = no significant clearance
How it was run: (§1)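 Substrate depletion at 1 μM PFAS in pooled cryopreserved human hepatocytes (~0.5 × 10^6 viable cells/mL, 50-donor pool), 37 °C with shaking, sampled 0–240 min in triplicate. Quantified by LC-MS in negative ion mode against matrix-matched calibration; media-only or heat-inactivated cells as nonmetabolic-loss controls.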

in vitro = conditions: both, human, hepatocytes
How it was run: as §1

[4] = test system: pooled primary human hepatocyte suspensions; test: Bayesian (MCMC, invitroTKstats) analysis of hepatic clearance data; conditions: for metabolic clearance call, experimental and Bayesian analyses in agreement: both analyses agreed
Description: as §2

[5] = Administered equivalent dose (AED) by reverse dosimetry; parameters: species or system human; conditions: from Css and AC50 POD by reverse dosimetry
Description: IVIVE was performed as previously described to calculate human steady-state concentrations (Css). Briefly, experimental plasma protein binding data presented elsewhere were transformed to fraction unbound in blood using blood-to-plasma partitioning values. Experimental Clint values generated here are used in conjunction with relevant liver scalars to scale up to estimate whole liver clearance. […] Once Css values were established, these were used with the PFAS-specific in vitro POD data to calculate the administered equivalent doses (AEDs) using reverse dosimetry. […] The fifth-percentile AC50 value was used to define the in vitro POD. All relevant inputs, scalars, and calculations are provided in Supplementary Information, as indicated in the results.

[6] = parameters: method as in PMID 26085347; conditions: simulation; cited from earlier work
[7] = parameters: method as in PMID 36851038; conditions: dynamic one-compartment model; cited from earlier work
[8] = parameters: method as in PMID 32648786; conditions: human; cited from earlier work
[9] = CLint value carried into HTTK/IVIVE, in µL/min/10^6 cells
[10] = pooled primary human hepatocyte suspensions, in µL/min/10^6 cells
[11] = unadjusted hepatic intrinsic clearance, pooled primary human hepatocyte suspensions, Table S4, in µL/min/10^6 cells

Compound | Clint.1.Med [1] | Css (mg/L) [2] | Css (uM) [2] | CLhep [2] | Fub [2] | CLint [2] | Unadj Clint [3, 11] | hepatocyte CLint at 1 μM (in vitro) | Unadj Clint ([3]; both, human, hepatocytes, 1 μM) | fup (fraction unbound in plasma) (plasma protein) | Css [2] | In Vitro Clint ([3]; 1 μM) | AED [5] | other results
O=C(O)C=CC(F)(C(F)(F)F)C(F)(F)F [3-(Perfluoroisopropyl)-2-propenoic acid] | 0 | 2.41 mg/L | 10.03 µM | 0.000 L/h | 0.1824 | 0 µL/min | 1.23 | – | – | – | – | – | – | Mean fu (plasma protein; fraction unbound in plasma, input for IVIVE calculations): 0.1003; CLint for HTTK [3, 9]: 0; in vitro CLint exp assay [3, 10]: 0
CCNS(=O)(=O)C(F)(F)C(F)(F)C(F)(F)C(F)(F)C(F)(F)C(F)(F)C(F)(F)C(F)(F)F [NEtFOSA, N-Ethylperfluorooctanesulfonamide] | 164 | – | – | – | – | – | – | > 15 µL/min/1e6 cells | 24.92 | – | – | – | – | –
O=C(O)CCC(F)(F)C(F)(F)C(F)(F)C(F)(F)C(F)(F)F [5:3 FTCA, 2H,2H,3H,3H-Perfluorooctanoic acid] | – | – | – | – | – | – | 11.84 | 11.8 µL/min/1e6 cells | – | 0.0059 | 6.18 µM | 11.84 μL/min/million cells | 0.99 mg/kg/day | metabolic clearance call, experimental and Bayesian analyses in agreement [4]: metabolized
O=C(O)CCC(F)(F)C(F)(F)C(F)(F)C(F)(F)C(F)(F)C(F)(F)C(F)(F)F [7:3 FTCA, 3-Perfluoroheptylpropanoic acid] | – | 2.20 mg/L | 4.99 µM | 1.272 L/h | 0.009273 | 2319148 µL/min | 19.74 | 15.7 µL/min/1e6 cells | – | 0.0051 | 4.99 µM | 15.7 μL/min/million cells | 0.19 mg/kg/day | CLint for HTTK [3, 9]: 13.21; in vitro CLint exp assay [3, 10]: 13.21; Clint.1.Med ([4]; Level-4 Bayesian estimate, posterior median, Clint.1 series (Clint.10 all NA)): 15.6; metabolic clearance call, experimental and Bayesian analyses in agreement [4]: metabolized
O=C(O)CCC(F)(C(F)(F)F)C(F)(F)F | 0 | 2.52 mg/L | 10.43 µM | 0.000 L/h | 0.1738 | 0 µL/min | – | – | 0.00 | – | – | – | – | Mean fu (plasma protein; plasma): 0.0956; CLint for HTTK ([3]; both, human, hepatocytes, 1 μM): 0; in vitro CLint exp assay ([3]; both, human, hepatocytes, 1 μM): 0
O=C(O)C(F)(F)C(F)(F)C(F)(F)C(F)(F)C(F)(F)C(F)(F)C(F)(F)F [PFOA, Perfluorooctanoic acid] | – | – | – | – | – | – | – | – | – | 0.0010 | 582.99 µM | – | 0.01 mg/kg/day | time to reach steady state [6]: 3.5 years; Unadj Clint ([3]; unadjusted hepatic intrinsic clearance, pooled primary human hepatocyte suspensions, Table S4, listed as Perfluorooctanoic acid, in µL/min/10^6 cells): 1.49
O=S(=O)(O)C(F)(F)C(F)(F)C(F)(F)C(F)(F)C(F)(F)C(F)(F)C(F)(F)C(F)(F)F [PFOS, Perfluorooctanesulfonic acid] | – | – | – | – | – | – | – | – | – | 0.0049 | 98.52 µM | – | 0.08 mg/kg/day | time to reach steady-state values [7]: 30 years; time to reach steady state [6]: 6.6 years; Unadj Clint ([3]; unadjusted hepatic intrinsic clearance, pooled primary human hepatocyte suspensions, Table S4, listed as Perfluorooctanesulfonic acid, in µL/min/10^6 cells): 1.38
O=S(=O)(O)CCC(F)(F)C(F)(F)C(F)(F)C(F)(F)C(F)(F)C(F)(F)F [6:2 FTS, 6:2 Fluorotelomer sulfonic acid] | – | – | – | – | – | – | 1.40 | 1.4 µL/min/1e6 cells | – | 0.0143 | 12.36 µM | 1.4 μL/min/million cells | 0.89 mg/kg/day | –
NS(=O)(=O)C(F)(F)C(F)(F)C(F)(F)C(F)(F)C(F)(F)C(F)(F)C(F)(F)C(F)(F)F [PFOSA, Perfluorooctanesulfonamide] | 0 | – | – | – | – | – | – | > 15 µL/min/1e6 cells | 22.84 | – | – | – | – | –
O=S(=O)(O)C(F)(F)C(F)(F)C(F)(F)C(F)(F)F [PFBS, Perfluorobutanesulfonic acid] | – | – | – | – | – | – | 4.75 | 4.75 µL/min/1e6 cells | – | 0.0128 | 7.51 µM | 4.75 μL/min/million cells | 0.83 mg/kg/day | estimated half life [8]: as low as one month
